Data from patent publication US12065654B2, “Plants having increased tolerance to herbicides” (BASF SE, priority 2014, dated 2024).

Legend:
[1] = system: HPPD enzymes from different organisms; test: HPPD activity assay, summary statement; type: biochemical; details: all HPPD enzymes from different organisms of Table 12
Procedure: The activity assay for HPPD is based on the analysis of homogentisic acid by reversed phase HPLC.
The assay mixture can contain 150 mM potassium phosphate buffer pH 7.0, 50 mM L-ascorbic acid, 100 μM Catalase (Sigma-Aldrich), 1 μM FeSO4 and 0.2 units of purified HPPD enzyme in a total volume of 505 μl. 1 unit is defined as the amount of enzyme that is required to produce 1 nmol of HGA per minute at 20° C.
The reaction is allowed to proceed for 45 min at room temperature. The reaction is stopped by the addition of 50 μl of 4.5 M phosphoric acid. The sample is filtered using a […] pore size PVDF filtration device. 5 μl of the cleared sample is analyzed on an UPLC HSS T3 column (particle size 1.8 μm, dimensions 2, 1×50 mm; Waters) by isocratic elution using 90% 20 mM NaH2PO4 pH 2.2, 10% methanol (v/v).
HGA is detected electrochemically at 750 mV (mode: DC; polarity: positive) and quantified by integrating peak areas (Empower software; Waters).
Inhibitors are dissolved in DMSO (dimethylsulfoxide) to a concentration of 0.5 mM. From this stock solution serial five-fold dilutions are prepared in DMSO, which are used in the assay. The respective inhibitor solution accounts for 1% of the assay volume. Thus, final inhibitor concentrations range from 5 μM to 320 pM, respectively. […] IC50 values are calculated using non-linear regression. […]

[2] = system: transgenic soybean plants AtHPPD P336A E363Q I393L L385V, event SDS-10085; test: Greenhouse testing of soybean plants; type: in vivo, Glycine max; details: soybean AtHPPD P336A E363Q I393L L385V SDS-10085, 14 days, average of 8 T1 individuals
Procedure: Transgenic plants expressing heterologous HPPD or HST enzymes are tested for tolerance against HPPD-inhibiting, preferably pyrazolone, isoxazole, or triketone derivative herbicides in greenhouse experiments.
For post emergence treatment, the test plants are first grown to a height of 3 to 15 cm, depending on the plant habit, and only then treated with the herbicides. For this purpose, the test plants are either sown directly and grown in the same containers, or they are first grown separately and transplanted into the test containers a few days prior to treatment.
For testing of T0 plants, cuttings can be used. In the case of soybean plants, an optimal shoot for cutting is about 7.5 to 10 cm tall, with at least two nodes present. Each cutting is taken from the original transformant (mother plant) and dipped into rooting hormone powder (indole-3-butyric acid, IBA). The cutting is then placed in oasis wedges inside a bio-dome. Wild type cuttings are also taken simultaneously to serve as controls. The cuttings are kept in the bio-dome for 5-7 days and then transplanted to pots and then acclimated in the growth chamber for two more days. Subsequently, the cuttings are transferred to the greenhouse, acclimated for approximately 4 days, and then subjected to spray tests as indicated.
Depending on the species, the plants are kept at 10-25° C. or 20-35° C. The test period extends over 3 weeks. During this time, the plants are tended and their response to the individual treatments is evaluated. Herbicide injury evaluations are taken at 2 and 3 weeks after treatment. Plant injury is rated on a scale of 0 to 9, 0 being no injury and 9 being complete death. Tolerance to HPPD-inhibiting, preferably pyrazolone, isoxazole, or triketone derivative herbicides can also be assessed in Arabidopsis. In this case transgenic Arabidopsis thaliana plants are assayed for improved tolerance to HPPD-inhibiting, preferably pyrazolone, isoxazole, or triketone derivative herbicides in 48-well plates. Seeds are surface sterilized by stirring for 5 min in ethanol+water (70+30 by volume), rinsing one time with ethanol+water (70+30 by volume) and two times with a sterile, deionized water. The seeds are resuspended in 0.1% agar dissolved in water (w/v). Four to five seeds per well are plated on solid nutrient medium consisting of half-strength Murashige Skoog nutrient solution, pH 5.8 (Murashige and Skoog (1962) Physiologia Plantarum 15: 473-497). Compounds are dissolved in dimethylsulfoxid (DMSO) and added to the medium prior solidification (final DMSO concentration 0.1%). Multi well plates are incubated in a growth chamber at 22° C., 75% relative humidity and 110 μmol Phot*m−2*s−1 with 14:10 h light:dark photoperiod. Seven to ten days after seeding growth inhibition is evaluated by comparison to wild type plants. Tolerance factor is calculated by dividing the plant growth IC50 value of transgenic plants containing a HPPD and/or HST sequence by that of wildtype plants.
Transgenic soy plants were sprayed with a range of doses from 6.25-100 g/ha with an HPPD-inhibiting herbicide and injury evaluations were taken two weeks after treatment. […] Compared to the untransformed wild-type, plants comprising polynucleotides encoding for Arabidopsis HPPD wild-type or mutated versions thereof were less susceptible to Inhibitor 1.

Compound: Cc1c(C(=O)c2cnn(C)c2O)ccc(S(C)(=O)=O)c1C1=NOCC1 [Inhibitor 1, [3-(4,5-dihydroisoxazol-3-yl)-2-methyl-4-methylsulfonyl-phenyl]-(5-hydroxy-1-methyl-pyrazol-4-yl)methanone]
- fold more resistant in respect to the reference SEQ ID NO:53 [1]: at least 1.7 fold
- Injury evaluation (bleaching phenotype, scale of 1-100) ([2]; 6.25 g/ha): 16%
- Injury evaluation (bleaching phenotype, scale of 1-100) ([2]; 25 g/ha): 35%
- Injury evaluation (bleaching phenotype, scale of 1-100) ([2]; 100 g/ha): 78%
